Where two headings read alike, the source gives them in different places. Each block holds one compound with its values, some of them ahead of it.
Assays:
cyclophilin = assay: Chymotrypsin coupled PPIase activity assay; format: biochemical
FKBP12 = FKBP12 (Homo sapiens, UniProt P62942); assay: Chymotrypsin coupled PPIase activity assay; format: biochemical
Pin1 [1] = target: Pin1 (Mus musculus, UniProt Q9QUR7); assay: Pin1 protein, mRNA and half-life in MEFs; format: cell-based; details: for Pin1 protein half-life: 50 μM, 24 h, cycloheximide chase
Pin1 (Mus musculus, UniProt Q9QUR7), sequence (Q9QUR7 whole entry): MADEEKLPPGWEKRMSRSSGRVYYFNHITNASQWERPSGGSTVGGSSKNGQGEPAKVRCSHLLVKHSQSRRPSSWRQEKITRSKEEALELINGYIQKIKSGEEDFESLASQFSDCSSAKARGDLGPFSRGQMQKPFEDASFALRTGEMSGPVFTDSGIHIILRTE

Pin1 WT MEFs = assay: MTT cell growth assay; format: cell-based, mouse; details: 72 h
Pin1 [2] = target: T1, Pin1 (Homo sapiens, UniProt Q13526); assay: Immunostaining of bone marrow of APL patients treated with ATRA; format: in vivo
T1 sequence (Q13526 whole entry): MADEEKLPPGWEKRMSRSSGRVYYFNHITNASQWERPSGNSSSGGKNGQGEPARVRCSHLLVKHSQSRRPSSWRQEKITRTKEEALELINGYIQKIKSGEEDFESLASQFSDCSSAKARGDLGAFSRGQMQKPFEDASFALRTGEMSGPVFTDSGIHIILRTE

[3] = tested on: APL cells isolated from hCG-PML-RARα transgenic mice; details: 3 weeks treatment
SKBR3 cells = assay: Foci formation assay; format: cell-based; details: 48 h
[4] = tested on: Pin1 and its substrate oncogenes and tumor suppressors; format: cell-based, human; details: 72 hr
cyclin D1 promoter = assay: Cyclin D1 promoter-driven luciferase reporter assay; format: cell-based; details: SKBR3 cells, 72 h
Pin1 [5] = target: T1, Pin1; format: binding; details: incubation 0.5 hour
PML-RARα [6] = assay: Immunoblotting for PML-RARα in NB4 cells; format: cell-based, human; details: 72 h
[7] = standard doses in human patients; cited from earlier work
NIH 3T3 cells = assay: Centrosome amplification induced by Pin1 overexpression; format: cell-based; details: 72 h
MCF10A cells = assay: Colorimetric MTT assay; format: cell-based, human; details: 72 h
MDA-MB-468 cells = assay: MDA-MB-468 xenograft in nude mice; format: in vivo; details: ATRA-releasing pellets
PML-RARα [8] = assay: Immunostaining of bone marrow of APL patients treated with ATRA; format: in vivo, human
MDA-MB-231 cells = assay: MDA-MB-231 xenograft in nude mice; format: in vivo
Pin1 KO MEFs = assay: MTT cell growth assay; format: cell-based, mouse; details: 72 h, compared with WT MEFs
HMLE cells = assay: Colorimetric MTT assay; format: cell-based, human; details: 72 h
Pin1 [9] = target: T1, Pin1; assay: Immunoblotting for Pin1 in NB4 cells; format: cell-based; details: 72 h
human APL NB4 cells = assay: APL cell differentiation; format: cell-based; details: 72 h
breast cancer cells = assay: Growth and Pin1 degradation in breast cancer cells, combinations with ATRA; format: cell-based, human
Pin1 [10] = target: T1, Pin1; assay: Photoaffinity labeling of Pin1 with [3H]ATRA; format: binding; details: SDS gels
[11] = target: FKBP12 (FK506-binding protein 12) (Homo sapiens, UniProt P62942); assay: Binding of fluorescently-labeled pTide to FKBP12
FKBP12 (FK506-binding protein 12), sequence (P62942 whole entry, species assumed): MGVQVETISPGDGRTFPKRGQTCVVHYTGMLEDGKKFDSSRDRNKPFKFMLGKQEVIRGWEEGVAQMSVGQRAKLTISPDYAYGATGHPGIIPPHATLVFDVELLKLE

Pin1 [12] = target: T1, Pin1; details: cited from earlier work
Pin1 [13] = target: T1, Pin1; assay: Binding of
[14] = three ATRA-sensitive cancer cell lines

FKBP12, sequence (P62942 whole entry, species assumed): as above

Compound: CC1=C(/C=C/C(C)=C/C=C/C(C)=C\C(=O)O)C(C)(C)CCC1 [13cRA, 13-cis-retinoic acid]
- inhibition of cyclophilin PPIase activity (cyclophilin): neither inhibited
- inhibition of FKBP12 PPIase activity (FKBP12): neither inhibited
- Pin1 protein half-life (Pin1 [1]): reduced Pin1 protein half-life

Compound: CC1=C(/C=C/C(C)=C/C=C/C(C)=C/C(=O)O)C(C)(C)CCC1 [ATRA, all-trans retinoic acid]
- inhibition of growth (Pin1 WT MEFs): Relatively high concentrations of ATRA were required
- Pin1 remaining after treatment (Pin1 [2]; 3 days of ATRA treatment): ~ 40%
- Pin1 remaining after treatment (Pin1 [2]; 10 days of ATRA treatment): < 10%
- inhibition of cyclophilin PPIase activity (cyclophilin): neither inhibited
- PML-RARα in the bone marrow [3]: effectively reduced PML-RARα in the bone marrow
- Pin1 levels in the bone marrow [3]: reduced Pin1 levels in the bone marrow
- spleen weights [3]: spleen weights nearly at basal levels
- inhibition of Pin1-enhanced foci formation (SKBR3 cells): dose-dependently and fully inhibited
- effects on Pin1 and substrate proteins ([4]; MCF10A cells): no appreciable effects
- abundance of Pin1 and substrate oncogenes (cyclin D1, HER2, ERα, Akt, NFκB p65, c-Jun, PKM2) [4, 14]: dose-dependent decrease in abundance of Pin1 and its substrate oncogenes
- abundance of Pin1 substrate tumor suppressors (Smad2/3, SMRT) [4, 14]: increase in abundance of Pin1 substrate tumor suppressors
- inhibition of Pin1-induced activation of the cyclin D1 promoter (cyclin D1 promoter): dose-dependently and fully inhibited
- Pin1 binding (FP assay) (Pin1 [5]): most potent
- PML-RARα abundance (PML-RARα [6]): dose-dependently reduced PML-RARα
- drug concentration produced [7]: 1200 nM
- inhibition of Pin1 overexpression-induced centrosome amplification (NIH 3T3 cells): dose-dependently and fully inhibited
- cell proliferation, susceptibility to ATRA (MCF10A cells): highly resistant to ATRA
- inhibition of FKBP12 PPIase activity (FKBP12): neither inhibited
- abundance of Pin1 and cyclin D1 in tumors (MDA-MB-468 cells): reduced abundance of Pin1 and its substrate cyclin D1
- Pin1 protein half-life (Pin1 [1]): reduced Pin1 protein half-life
- Pin1 mRNA levels (Pin1 [1]; 72 h, quantitative RT-PCR): no obvious effects
- Pin1 protein abundance (Pin1 [1]; WT Pin1, 72 h, immunoblotting): dose-dependently down-regulated
- PML-RARα remaining after treatment (PML-RARα [8]; 3 days of ATRA treatment): ~ 40%
- PML-RARα remaining after treatment (PML-RARα [8]; 10 days of ATRA treatment): < 10%
- antitumor activity (MDA-MB-231 cells; 33.0 μmol/kg intraperitoneally 3 times a week for 8 weeks): only modest antitumor activity
- growth of tumors from MDA-MB-231 cells stably expressing Pin1 (MDA-MB-231 cells; ATRA implants for 7 weeks): effectively inhibited by ATRA in a dose-dependent manner
- abundance of Pin1 and cyclin D1 in tumors (MDA-MB-231 cells; ATRA-releasing pellets): reduced abundance of Pin1 and its substrate cyclin D1
- inhibition of growth (Pin1 KO MEFs): more resistant to ATRA
- cell proliferation, susceptibility to ATRA (HMLE cells): highly resistant to ATRA

Compound: O=C(O[C@@H]1Cc2c(O)cc(O)cc2O[C@@H]1c1cc(O)c(O)c(O)c1)c1cc(O)c(O)c(O)c1 [EGCG]
- Pin1 abundance (Pin1 [9]): inhibited Pin1 without degrading it
- induction of APL cell differentiation (human APL NB4 cells): neither Pin1 inhibitors nor Pin1 shRNA induced human APL cell differentiation
- PML-RARα in the bone marrow [3]: effectively reduced PML-RARα in the bone marrow
- condition of treated mice [3]: rather sick
- spleen weights [3]: spleen weights nearly at basal levels
- PML-RARα abundance (PML-RARα [6]): dose-dependently reduced PML-RARα

Compound: O=C1C=CC(=O)c2c(O)cccc21 [Juglone]
- Pin1 abundance (Pin1 [9]): inhibited Pin1 without degrading it
- induction of APL cell differentiation (human APL NB4 cells): neither Pin1 inhibitors nor Pin1 shRNA induced human APL cell differentiation
- PML-RARα in the bone marrow [3]: effectively reduced PML-RARα in the bone marrow
- condition of treated mice [3]: rather sick
- spleen weights [3]: spleen weights nearly at basal levels
- PML-RARα abundance (PML-RARα [6]): dose-dependently reduced PML-RARα

Compound: CCOC(=O)CN1C(=O)c2ccc3c4c(ccc(c24)C1=O)C(=O)N(CC(=O)OCC)C3=O [PiB]
- Pin1 abundance (Pin1 [9]): inhibited Pin1 without degrading it
- induction of APL cell differentiation (human APL NB4 cells): neither Pin1 inhibitors nor Pin1 shRNA induced human APL cell differentiation
- PML-RARα abundance (PML-RARα [6]): dose-dependently reduced PML-RARα

Compound: CCCCCCCOc1cc2c(cc1/C(C)=C/c1ccc(C(=O)O)cc1)C(C)(C)CCS2(=O)=O [Ro-415253]
- Pin1 binding (FP assay) (Pin1 [5]): minimal Pin1 binding
- effect on the ability of ATRA to induce Pin1 degradation or inhibit proliferation (breast cancer cells): neither had obvious effects

Compound: CC1=C(/C=C/C(C)=C/C=C/C(C)=C/C(=O)O)C(C)(C)CCC1 [[^3H]-ATRA, all-trans-[11,12-3H]retinoic acid]
- Kd (Pin1 [10]): 800 nM

Compound: C=C(c1ccc(C(=O)O)cc1)c1cc2c(cc1C)C(C)(C)CCC2(C)C [bexarotene]
- Pin1 binding (FP assay) (Pin1 [5]): only marginal Pin1 binding

Compound: Clc1cccc(C(c2ccc3[nH]cnc3c2)n2ccnc2)c1 (centres unmarked) [liarazole]
- effect in combination with ATRA on cell growth (breast cancer cells): generally additive effects with ATRA

Now from value to compound, other results behind:

- Pin1 binding (FP assay) (Pin1 [5]): only marginal Pin1 binding
Compound: CC1=C(/C=C/C(C)=C/C=C/C(C)=C/C(=O)Nc2ccc(O)cc2)C(C)(C)CCC1 [fenretinide]

- Pin1 binding (FP assay) (Pin1 [5]): totally inactive
Compound: CC1=C(/C=C/C(C)=C/C=C/C(C)=C/C=O)C(C)(C)CCC1 [retinal]

- Pin1 binding (FP assay) (Pin1 [5]): totally inactive
Compound: CC1=C(/C=C/C(C)=C/C=C/C(C)=C/CO)C(C)(C)CCC1 [retinol]

- Pin1 binding (FP assay) (Pin1 [5]): totally inactive
Compound: CC(=O)OC/C=C(C)/C=C/C=C(C)/C=C/C1=C(C)CCCC1(C)C [retinyl acetate]

- binding of fluorescently-labeled pTide to FKBP12 [11]: not to FKBP12
- binding of fluorescently-labeled pTide to Pin1 (Pin1 [13]): bound to Pin1
Compound: Bth-D-phos.Thr-Pip-Nal [pTide]
- Kd (Pin1 [12]): 1.2 nM

Source: paper PMC4425616 (Nature medicine, 2015)
